Patent publication US20090232771A1, “Method of controlling cell functions” (Takeda Pharmaceutical Company Limited, priority 2004, published 2009)

B1: oncostatin M (protein, UniProt P13725 26-221, looked up)
Oncostatin-M: AAIGSCSKEYRVLLGQLQKQTDLMQDTSRLLDPYIRIQGLDVPKLREHCRERPGAFPSEETLRGLGRRGFLQTLNATLGCVLHRLADLEQRLPKAQDLERSGLNIEDLEKLQMARPNILGLRNNIYCMAQLLDNSDTAEPTKAGRGASQPPTPTPASDAFQRKLEGCRFLHGYHRFMHSVGRVFSKWGESPNRSRR
notes: differentiation induction factor for osteoblasts from human mesenchymal stem cells in serum-free medium

Tests used:
[1] = tested on: human mesenchymal stem cells; assay: Differentiation of human mesenchymal stem cells into adipocytes, Oil Red O staining of accumulated intracellular lipids; assay type: cell-based; conditions: cholecystokinin 100 nM in differentiation induction medium; compared to cholecystokinin-free control; FIG. 1
Experimental: Human mesenchymal stem cells were incubated in a 24-well culture plate until the cells became confluent. Then, the medium was exchanged with a differentiation induction medium prepared by adding cholecystokinin (100 nM) to high-glucose DMEM medium supplemented with insulin, dexamethasone, isobutylmethylxanthine, indomethacin, antibiotic and 10% fetal bovine serum, and incubation was continued for 3 days. For control, a cholecystokinin-free differentiation induction medium was used. After incubation was conducted for 3 days in a high-glucose DMEM medium (adipocyte maintenance medium) supplemented only with insulin, antibiotic and 10% fetal bovine serum, the same treatments (the induction and the maintenance, respectively, for 3 days) were repeated. Accumulated intracellular lipids were visualized by staining with Oil Red 0 dye.

[2] = tested on: human mesenchymal stem cells; assay: Osteoblast differentiation induction from human mesenchymal stem cells, accumulated calcium level per well (Calcium C-Test); assay type: cell-based; conditions: oncostatin M added (10 ng/ml); irrespective of presence or absence of FBS; compared to 10% FBS-containing differentiation medium without oncostatin M; FIG. 2
Experimental: Human mesenchymal stem cells were purchased from Cambrex, Inc. Dulbecco's Modified Eagle Medium (DMEM, Invitrogen) containing 1.0 g/l of glucose and supplemented with 10% fetal bovine serum (Stem Cell Technologies), 2 mM L-glutamine (Invitrogen), 100 U/ml penicillin and 100 μg/ml streptomycin was used as a maintenance medium. The maintenance medium supplemented with 0.1 μM dexamethasone, 0.05 mM ascorbic acid and 10 mM β-glycerophosphate (=10% FBS-containing differentiation medium) or fetal bovine serum-free maintenance medium supplemented with the three components above was used as a differentiation medium (=serum-free differentiation medium). […] Subsequently, the medium was exchanged every 4 days, and the accumulated calcium level per well was quantified on day 10 of the incubation (Calcium C-Test, Wako Pure Chemical).

Row | Molecule | lipid accumulation (accumulated intracellular lipids, Oil Red O staining) compared to control [1] | accumulation of calcium per well on day 10 of the incubation [2]
1 | cholecystokinin (DYMGWMDF) [ligand of the cholecystokinin receptor] | lipid accumulation is enhanced | 
2 | B1 |  | marked accumulation of calcium was observed
